Data from patent US6071919A, “Zwitterionic compositions and methods as biological response modifiers” (priority 1998, dated 2000).
“Also recorded” adds a separate entry of the source.

Columns and labels:
[1] = tested on: alkaline phosphatase; experiment: Decrease of alkaline phosphatase in mammals; format: in vivo
Source text: It is discovered that zwitterionic compounds, such as HEPES, decrease the production of alkaline phosphatase in mammals.

[2] = tested on: serum alkaline phosphatase; experiment: Example Six: serum alkaline phosphatase in healthy canines; format: in vivo, canine; details: up to 500 mg/kg, five canines
Description: Five healthy canines were administered up to 500 mg/kg of HEPES.

[3] = tested on: cancer; experiment: Treatment of cancer patients with HEPES alone; format: in vivo, human; details: 300 mg/kg to 1000 mg/kg daily
[4] = Treatment of rheumatoid arthritis patients with HEPES alone; format: in vivo, human; details: 300 mg/kg to 1000 mg/kg daily
Description: (§1) To date, more than twenty-five patients have been treated with 300 mg/kg to 1000 mg/kg HEPES daily (no other agents or additional compositions).

[5] = Treatment of myasthenia gravis patients with HEPES alone; format: in vivo, human; details: 300 mg/kg to 1000 mg/kg daily
Description: as §1

[6] = Example Eight: patient with organophosphate induced polyneuropathy; format: in vivo, human
Description: A person with organophosphate induced polyneuropathy (such as found in Agent Orange toxicity and/or Gulf War Syndrome) had significant numbness in both legs, decreased sensation in both hands, and decreased proprioception was given 8 mg/kg orally of zwitterionic piperazine (HEPES) for two weeks.

[7] = tested on: Herpes Zoster; experiment: Example Nine: patient with painful Herpes Zoster; format: in vivo, human; details: 1000 mg i.v. daily
Description: A person with painful Herpes Zoster unresponsive to conventional treatment was given 1000 mg intravenously of zwitterionic piperazine daily.

[8] = tested on: HIV; experiment: Example Ten: patient with HIV infection and HIV associated polyneuropathy; format: in vivo; details: 5000 mg i.v. daily, after thirty days
Description: A person with documented HIV infection had HIV associated polyneuropathy. They could not raise their legs without assistance. They were given 5000 mg intravenously of zwitterionic piperazine (HEPES) daily for thirty days. […] Their cluster determinates had risen and sensation and proprioception were improved.

[9] = tested on: hepatitis B; experiment: Example Eleven: patient with chronic hepatitis B infection; format: in vivo, human; details: 5000 mg i.v., after thirty days
Source text: After thirty days, their bilirubin fell to 3.0 and other liver enzymes were reduced by 25 percent or more.

[10] = tested on: beta-hemolytic streptococci; experiment: Example Twelve: MIC of antibiotics with and without HEPES, streptococci; format: cell-based; details: agar gel cultures, colony counts of 10^6, with vs without HEPES
Description: (§2) Routine agar gel cultures are inoculated with beta-hemolytic streptococci and gram […] staphylococci. The cultures were raised to colony counts of 10^6. The mean inhibitory concentration (MIC) with susceptible antibiotics was measured with and without the presence of zwitterionic piperazine (HEPES).

[11] = tested on: gram negative staphylococci; experiment: Example Twelve: MIC of antibiotics with and without HEPES, staphylococci; format: cell-based; details: agar gel cultures, colony counts of 10^6, with vs without HEPES
Description: as §2

[12] = Antibiotic efficacy in vivo
[13] = Example Fifteen: patient with seizure disorder, EEG; format: in vivo, human; details: 5000 mg orally (2500 mg twice a day), two weeks
Description: A person with a longstanding history of seizure disorder was poorly controlled and had recurrent seizures while taking Dilantin and phenobarbital. They started on 5000 mg zwitterionic piperazine orally (2500 mg twice a day) for two weeks. […] The zwitterionic piperazine (HEPES) has membrane stabilizing properties, is effective for anti-arrhythmic therapy, and is effective anti-seizure therapy.

[14] = tested on: acute hymphocytic leukemia (ALL); experiment: Example Sixteen: patient with acute lymphocytic leukemia in blast crisis; format: in vivo, human; details: for Hemoglobin (Hgb): pre-infusion 10.5; for Blasts: pre-infusion 45%; for Platelets: pre-infusion 31,000; for White Blood Cells (WBC): pre-infusion 38,000
Source text: A person presented with acute hymphocytic leukemia (ALL).
They were started on zwitterionic piperazine therapy (HEPES).
Her baseline laboratory data was obtained following a blood transfusion before starting the HEPES;

[15] = Observations in HEPES-treated dogs; format: in vivo
[16] = tested on: cancer tumors; experiment: Macrophage infiltration of tumors; format: in vivo, dogs
Source text: (§3) The amphoteric zwitterion compounds may be employed as active ingredients with other active ingredients, as well as other components and carriers typically used in pharmaceutical compositions; such as, but not limited to: buffers, stabilizers, dyes, antioxidants, dispersing agents, fillers, surfactants, silicones, bulking agents, pigments, salts, human or animal (natural or synthetic) cells and cellular components, antibiotics, drugs, vitamins, amino acids, proteins, serum and various other compounds and combinations thereof in varying amounts.

[17] = tested on: giant platelets and histiocytes; experiment: Giant platelets and histiocytes on peripheral smear; format: in vivo, animals; details: blood / peripheral smear
Source text: as §3

[18] = ADA: data of Schwarzenbach et al. (1955); cited from earlier work
[19] = ADA: data of Schwarzenbach et al. (1955); cited from earlier work; remark: listed apart in the source
[20] = ADA: data of Schwarzenbach et al. (1955); cited from earlier work; remark: listed apart in the source
[21] = change of pKa per ° C.; cited from earlier work
[22] = cited from earlier work
[23] = 13.0 mg/kg I.V. increased to 80 mg/kg I.V.

O=S(=O)(O)CCN1CCN(CCO)CC1 [HEPES, N-2 Hydroxyethylpiperazine-N'-2 Ethane Sulfonic Acid]
fall of baseline alkaline phosphatase levels ([1]; in excess of 100 mg/kg to 500 mg/kg or greater): fall by a factor of two or greater | alkaline phosphatase measurability ([1]; in excess of 100 mg/kg to 500 mg/kg or greater, some cases): not measurable by standard laboratory methods | concentration at which decrease of alkaline phosphatase appears to start ([1]; mammals): approximately 12 mg/kg | serum alkaline phosphatase [2]: not detected by standard laboratory methods in all canines | decrease in tumor volume and/or tumor activity ([3]; all patients with cancer): 25%-50% | cancer pain response ([3]; all patients with cancer pain): All patients with cancer pain have responded with pain reduction | reduction in disease activity [4]: 25%-50% | reduction in disease activity [5]: 25%-50% | myelin integrity / organic phosphate induced polyneuropathy ([6]; 8 mg/kg orally): reversed the effect of organic phosphate induced polyneuropathy in the patient and restored myelin integrity | sensation and proprioception ([6]; 8 mg/kg orally, end of two weeks): sensation and proprioception had returned | sensation and proprioception after reinstatement ([6]; two weeks after reinstatement): sensation and proprioception were again restored | symptoms after stopping the medicine ([6]; two weeks after stop): symptoms returned in two weeks | pain ([7]; second day): the pain had diminished, so that other analgesia was not required | lesions ([7]; seventh day): the lesions had healed | pain ([7]; seventh day): no pain at all | lesions ([7]; third day): the lesions had crusted and were clearly healing | Total viral load determined by PCR [8]: decreased | ability to raise legs [8]: could raise their legs without assistance | cluster determinates [8]: had risen | sensation and proprioception [8]: improved | reduction of other liver enzymes [9]: ≥ 25% | bilirubin level ([9]; baseline 5.0): 3.0 | decrease in MIC of each antibiotic in culture (in vitro) [10]: more than 10% | decrease in MIC of each antibiotic in culture (in vitro) [11]: more than 10% | antibiotic efficacy in vivo [12]: enhanced the antibiotic efficacy in vivo | EEG focal activity [13]: significantly decreased focal activity | blast crisis [14, 23]: cessation of the blasts crisis | platelet destruction [14, 23]: Platelet destruction has ceased | Hemoglobin (Hgb) ([14]; Day 3 of HEPES treatment): 8.5 g/dL | Blasts ([14]; Day 3 of HEPES treatment): 45% | Platelets ([14]; Day 3 of HEPES treatment): 14,000 | White Blood Cells (WBC) ([14]; Day 3 of HEPES treatment): 53,000 | Hemoglobin (Hgb) ([14]; Day 7 of HEPES treatment): 11.6 g/dL | Blasts ([14]; Day 7 of HEPES treatment): 5.0% | Platelets ([14]; Day 7 of HEPES treatment): 17,000 | White Blood Cells (WBC) ([14]; Day 7 of HEPES treatment): 6,300 | behaviour following injections ([15]; all dogs): all dogs became calm following injections | hematomas at the injection sites ([15]; all treated dogs): rapid resolution of hematomas at the injection sites | diuresis ([15]; certain dosages): marked diuresis at certain dosages | vascular integrity ([15]; treated groups): strong evidence of improved vascular integrity | respiratory infections ([15]; while being treated, many in untreated group did): no animals in the treated group had any respiratory infections while being treated | macrocytic invasion of tumors ([16]; administered to mammals): macrocytic invasion of tumors | macrophage infiltration of cancer tumors ([16]; dogs): macrophage infiltration of cancer tumors in dogs | giant platelets and histiocytes [17]: production of giant platelets and histiocytes; also recorded: produces giant platelets and histiocytes in blood | Metal-Buffer Binding Constants Log KM, Mg^2+ [18]: Negl | Metal-Buffer Binding Constants Log KM, Ca^2+ [19]: Negl | Metal-Buffer Binding Constants Log KM, Cu^2+ [20]: Negl | αpKa /° C. [21]: -0.014 | Saturated Solution at 0° [22]: 2.25 M
